The record followed here is PubChem BioAssay AID240 (DTP/NCI, 2004).

The test system of the assay is Lymphoma 4 ip in BDF1 mice, median survival. Put plainly: NCI In Vivo Anticancer Drug Screen. Data for tumor model Lymphoma 4 (intraperitoneal) in B6D2F1 (BDF1) mice. The following applies: endpoint: median survival time, schedule: Q01DX010 (ip), vehicle: saline, higher = longer survival. How it is done:
The antitumor activity of compounds was measured in mice bearing transplantable tumors. Survival or tumor size were measured and the results are expressed as the measurement made in the treated group (T) divided by the measurement made in the vehicle treated control group (C). The tumor model used in this assay is Lymphoma 4 (intraperitoneal) in B6D2F1 (BDF1) mice

“And” between values parts separate entries of the source, which are not always exact repeats. Equal entries are not always repeated. Inconclusive results and toxic doses are left out.

Regarding `C[C@@H]1C[C@@H]([C@H](O)CC2CC(=O)NC(=O)C2)C(=O)[C@@H](C)C1`, the T/C reads like this: (dose: 5.0 mg/kg/injection) 96 % of control and 105 % of control; (dose: 10.0 mg/kg/injection) 93 % of control and 117 % of control; (dose: 20.0 mg/kg/injection) 117 % of control and 121 % of control; (dose: 40.0 mg/kg/injection) 108 % of control.
For `OCC1OC(n2cnc3c(=S)nc[nH]c32)C(O)C1O` (configuration not stated), the T/C (dose: 20.0 mg/kg/injection) was 96 % of control and 105 % of control; the T/C (dose: 40.0 mg/kg/injection) was 106 % of control and 111 % of control; the T/C (dose: 80.0 mg/kg/injection) was 100 % of control and 109 % of control; the T/C (dose: 160.0 mg/kg/injection) is 100 % of control and 105 % of control.
In the case of `O=C(O)CCCc1ccc(N(CCCl)CCCl)cc1`, the T/C runs as follows: (dose: 3.13 mg/kg/injection) 100 % of control and 105 % of control; (dose: 6.25 mg/kg/injection) 100 % of control and 123 % of control; (dose: 12.5 mg/kg/injection) 114 % of control.
Regarding `COc1cc(-c2ccc(Nc3ccccc3C(=O)O)c(OC)c2)ccc1N`, the T/C (dose: 10.0 mg/kg/injection) was 119 % of control.
On to `CN(C)c1ccc(Nc2c3ccccc3nc3ccccc23)cc1`, for which the T/C runs as follows: (dose: 36.0 mg/kg/injection) 107 % of control; (dose: 54.0 mg/kg/injection) 100 % of control and 115 % of control; (dose: 80.0 mg/kg/injection) 121 % of control and 123 % of control.
For `O=C(O)c1[nH]c(=O)[nH]c(=O)c1F`, the T/C (dose: 1.25 mg/kg/injection) is 120 % of control; the T/C (dose: 5.0 mg/kg/injection) is 163 % of control and 175 % of control; the T/C (dose: 10.0 mg/kg/injection) was 96 % of control.
On to `CCCNc1ncnc2[nH]ncc12`, for which the T/C is 109 % of control and 111 % of control (dose: 3.13 mg/kg/injection); 103 % of control and 123 % of control (dose: 6.25 mg/kg/injection); 103 % of control and 117 % of control (dose: 12.5 mg/kg/injection); 91 % of control and 109 % of control (dose: 25.0 mg/kg/injection).
In the case of `O=C(Nc1ccc(C2=NCCN2)cc1)c1ccc(C(=O)Nc2ccc(C3=NCCN3)cc2)c([N+](=O)[O-])c1`, the T/C was 157 % of control (dose: 6.0 mg/kg/injection); 189 % of control and 278 % of control (dose: 8.0 mg/kg/injection); 185 % of control and 300 % of control (dose: 12.0 mg/kg/injection); 96 % of control and 121 % of control (dose: 18.0 mg/kg/injection).
Turning to `Nc1nc(SCc2ccccc2)c2[nH]cnc2n1`, the T/C (dose: 8.0 mg/kg/injection) was 96 % of control and 100 % of control; the T/C (dose: 16.0 mg/kg/injection) is 96 % of control and 100 % of control.
On to `C1CN1c1nc(N2CC2)nc(N2CC2)n1`, for which the T/C is, setting by setting: (dose: 0.13 mg/kg/injection) 94 % of control and 105 % of control; (dose: 0.25 mg/kg/injection) 100 % of control and 102 % of control; (dose: 0.5 mg/kg/injection) 108 % of control; (dose: 1.0 mg/kg/injection) 97 % of control.
Consider `CCn1cnc2c(=S)nc[nH]c21`, for which the T/C is 96 % of control (dose: 4.0 mg/kg/injection); 100 % of control (dose: 8.0 mg/kg/injection); 93 % of control and 106 % of control (dose: 15.6 mg/kg/injection); 96 % of control (dose: 16.0 mg/kg/injection); 103 % of control (dose: 31.3 mg/kg/injection); 96 % of control and 100 % of control (dose: 32.0 mg/kg/injection). Besides, the T/C (dose: 62.5 mg/kg/injection) was 100 % of control.
Regarding `CN(C)/N=N/c1nc[nH]c1C(N)=O`, the T/C reads like this: (dose: 25.0 mg/kg/injection) 114 % of control; (dose: 50.0 mg/kg/injection) 114 % of control; (dose: 200.0 mg/kg/injection) 114 % of control.
`CC(=O)NC1=C(N2CC2)C(=O)C(NC(C)=O)=C(N2CC2)C1=O`: the T/C is 121 % of control (dose: 0.25 mg/kg/injection), 175 % of control (dose: 1.0 mg/kg/injection) and 164 % of control (dose: 2.0 mg/kg/injection).
Take `CN(C)c1ccc(/C=C/c2ccnc3ccccc23)cc1`: the T/C (dose: 4.0 mg/kg/injection) is 93 % of control and 103 % of control; the T/C (dose: 8.0 mg/kg/injection) was 96 % of control and 100 % of control; the T/C (dose: 16.0 mg/kg/injection) is 93 % of control and 100 % of control.
As for `OC(CBr)C(O)C(O)C(O)CBr` (configuration not stated), the T/C (dose: 25.0 mg/kg/injection) is 115 % of control, the T/C (dose: 50.0 mg/kg/injection) was 115 % of control and the T/C (dose: 200.0 mg/kg/injection) is 115 % of control.
As for `S=P(N1CC1)(N1CC1)N1CC1`, the T/C runs as follows: (dose: 0.05 mg/kg/injection) 106 % of control; (dose: 0.75 mg/kg/injection) 110 % of control; (dose: 1.5 mg/kg/injection) 117 % of control and 123 % of control; (dose: 6.0 mg/kg/injection) 114 % of control.
Regarding `CCN(CC)CCNc1ccc(C)c2sc3ccccc3c(=O)c12`, the T/C by setting is: (dose: 25.0 mg/kg/injection) 103 % of control; (dose: 50.0 mg/kg/injection) 120 % of control and 123 % of control; (dose: 100.0 mg/kg/injection) 103 % of control.
Consider `C#CCN(C)Cc1ccccc1`, for which the T/C was 93 % of control (dose: 25.0 mg/kg/injection), 93 % of control (dose: 50.0 mg/kg/injection), 96 % of control (dose: 100.0 mg/kg/injection) and 96 % of control (dose: 200.0 mg/kg/injection).
With `COc1ccc2c(c1OC)C(=O)O[C@@H]2[C@H]1c2c(cc3c(c2OC)OCO3)CCN1C`, the T/C (dose: 15.6 mg/kg/injection) was 107 % of control; the T/C (dose: 31.3 mg/kg/injection) is 106 % of control and 107 % of control; the T/C (dose: 62.5 mg/kg/injection) was 96 % of control and 107 % of control; the T/C (dose: 125.0 mg/kg/injection) was 93 % of control and 96 % of control; the T/C (dose: 250.0 mg/kg/injection) is 93 % of control.
`O=c1cnn(C2OC(CO)C(O)C2O)c(=O)[nH]1` (configuration not stated): the T/C by setting is: (dose: 200.0 mg/kg/injection) 106 % of control; (dose: 400.0 mg/kg/injection) 112 % of control; (dose: 800.0 mg/kg/injection) 106 % of control.
For `CC(=O)Nc1ccc2nc3ccc(NC(C)=O)cc3[n+](-c3ccccc3)c2c1`, the T/C is 111 % of control (dose: 25.0 mg/kg/injection) and 117 % of control (dose: 50.0 mg/kg/injection).
